Laboratory results taken from PubChem BioAssay AID256 (DTP/NCI, 2004).
Where “and” joins values, the source holds several entries; their conditions need not be identical. Equal values may be shown once. Inconclusive results and toxic doses are left out.

Test system: CD2F1 mice, L1210 leukemia ip, survival T/C
Experiment: NCI In Vivo Anticancer Drug Screen. Data for tumor model L1210 Leukemia (intraperitoneal) in CD2F1 (CDF1) mice
Conditions: higher = longer survival
Outline: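 Implant tumor; dose compound or vehicle; measure endpoint in both groups; report treated divided by control.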

[1] = endpoint: mean survival time, dose: 100.0 mg/kg/injection, schedule: Q01DX001 (ip), vehicle: saline with Tween-80
[2] = endpoint: mean survival time, dose: 100.0 mg/kg/injection, schedule: Q04DX003 (ip), vehicle: saline with Tween-80
[3] = endpoint: mean survival time, dose: 200.0 mg/kg/injection, schedule: Q01DX001 (ip), vehicle: saline with Tween-80
[4] = endpoint: mean survival time, dose: 200.0 mg/kg/injection, schedule: Q04DX003 (ip), vehicle: saline with Tween-80
[5] = endpoint: mean survival time, dose: 400.0 mg/kg/injection, schedule: Q01DX001 (ip), vehicle: saline with Tween-80
[6] = endpoint: mean survival time, dose: 400.0 mg/kg/injection, schedule: Q04DX003 (ip), vehicle: saline with Tween-80
[7] = endpoint: mean survival time, dose: 100.0 mg/kg/injection, schedule: Q01DX001 (ip), vehicle: saline
[8] = endpoint: mean survival time, dose: 200.0 mg/kg/injection, schedule: Q01DX001 (ip), vehicle: saline
[9] = endpoint: mean survival time, dose: 400.0 mg/kg/injection, schedule: Q01DX001 (ip), vehicle: saline
[10] = endpoint: mean survival time, dose: 25.0 mg/kg/injection, schedule: Q04DX002 (ip), vehicle: saline with Tween-80
[11] = endpoint: mean survival time, dose: 50.0 mg/kg/injection, schedule: Q04DX002 (ip), vehicle: saline with Tween-80
[12] = endpoint: mean survival time, dose: 100.0 mg/kg/injection, schedule: Q04DX002 (ip), vehicle: saline with Tween-80
[13] = endpoint: mean survival time, dose: 100.0 mg/kg/injection, schedule: Q01DX009 (ip), vehicle: saline with Tween-80
[14] = endpoint: mean survival time, dose: 200.0 mg/kg/injection, schedule: Q01DX009 (ip), vehicle: saline with Tween-80
[15] = endpoint: mean survival time, dose: 400.0 mg/kg/injection, schedule: Q01DX009 (ip), vehicle: saline with Tween-80
[16] = endpoint: median survival time, dose: 6.25 mg/kg/injection, schedule: Q01DX009 (ip), vehicle: saline with Tween-80
[17] = endpoint: median survival time, dose: 12.5 mg/kg/injection, schedule: Q01DX009 (ip), vehicle: saline with Tween-80
[18] = endpoint: median survival time, dose: 25.0 mg/kg/injection, schedule: Q01DX009 (ip), vehicle: saline with Tween-80
[19] = endpoint: median survival time, dose: 50.0 mg/kg/injection, schedule: Q01DX009 (ip), vehicle: saline with Tween-80

In the case of `O=C(COC(=O)C1CCCCCCC1)c1ccc(Br)cc1`, the T/C [1] is reported as 100 % of control, the T/C [2] is reported as 94 % of control and the T/C [3] is reported as 107 % of control. For the same compound, the T/C [4] was 96 % of control, the T/C [5] was 97 % of control and the T/C [6] was 97 % of control.

`Cc1cccnc1NC(=O)/C=C/C(=O)O` was tested, and the T/C (endpoint: mean survival time, dose: 12.5 mg/kg/injection, schedule: Q04DX003 (ip), vehicle: saline with Tween-80) was 96 % of control, the T/C (endpoint: mean survival time, dose: 25.0 mg/kg/injection, schedule: Q04DX003 (ip), vehicle: saline with Tween-80) was 101 % of control and the T/C (endpoint: mean survival time, dose: 50.0 mg/kg/injection, schedule: Q04DX003 (ip), vehicle: saline with Tween-80) was 104 % of control.

`Nc1nc(N)c(N=Nc2cccc3ccccc23)c(N)n1` was tested, and the T/C (endpoint: mean survival time, dose: 6.25 mg/kg/injection, schedule: Q01DX009 (ip), vehicle: other) was 98 % of control, the T/C (endpoint: mean survival time, dose: 12.5 mg/kg/injection, schedule: Q01DX009 (ip), vehicle: other) was 96 % of control and the T/C (endpoint: mean survival time, dose: 25.0 mg/kg/injection, schedule: Q01DX009 (ip), vehicle: other) was 95 % of control. The T/C (endpoint: mean survival time, dose: 25.0 mg/kg/injection, schedule: Q01DX009 (ip), vehicle: water) was 103 % of control, the T/C (endpoint: mean survival time, dose: 50.0 mg/kg/injection, schedule: Q01DX009 (ip), vehicle: other) was 95 % of control and the T/C (endpoint: mean survival time, dose: 50.0 mg/kg/injection, schedule: Q01DX009 (ip), vehicle: water) was 104 % of control. The T/C (endpoint: mean survival time, dose: 100.0 mg/kg/injection, schedule: Q01DX009 (ip), vehicle: other) was 96 % of control and the T/C (endpoint: mean survival time, dose: 100.0 mg/kg/injection, schedule: Q01DX009 (ip), vehicle: water) was 87 % of control.

In the case of `CC(=O)N/N=C1\CC2CCC1(C)C2(C)C` (stereo not given), the T/C [7] is reported as 102 % of control, the T/C [8] is reported as 102 % of control and the T/C [9] is reported as 98 % of control.

For `CC(=O)OCC1OC(n2cnc3c(I)nc(I)nc32)C(OC(C)=O)C1OC(C)=O` (stereo not given), the T/C (endpoint: median survival time, dose: 25.0 mg/kg/injection, schedule: Q01DX005 (ip), vehicle: saline with Tween-80) was 105 % of control, the T/C (endpoint: median survival time, dose: 50.0 mg/kg/injection, schedule: Q01DX005 (ip), vehicle: saline with Tween-80) was 95 % of control and the T/C (endpoint: median survival time, dose: 100.0 mg/kg/injection, schedule: Q01DX005 (ip), vehicle: saline with Tween-80) was 96 % of control. For the same compound, the T/C (endpoint: median survival time, dose: 200.0 mg/kg/injection, schedule: Q01DX005 (ip), vehicle: saline with Tween-80) was 95 % of control.

With `N#C[S-].N#C[S-].[Au+3].[Au+3].[CH3-].[CH3-].[CH3-].[CH3-]` the T/C [2] was 96 % of control and the T/C [4] was 98 % of control.

With `CCCCCCCCCCCC[N+]1(C)CCOCC1` the T/C (endpoint: mean survival time, dose: 12.5 mg/kg/injection, schedule: Q01DX009 (ip), vehicle: Klucel (hydroxypropylcellulose) (HPC)) was 102 % of control, the T/C (endpoint: mean survival time, dose: 25.0 mg/kg/injection, schedule: Q01DX009 (ip), vehicle: Klucel (hydroxypropylcellulose) (HPC)) was 98 % of control and the T/C (endpoint: mean survival time, dose: 50.0 mg/kg/injection, schedule: Q01DX009 (ip), vehicle: Klucel (hydroxypropylcellulose) (HPC)) was 98 % of control.

For `O=C1C(NCCO)=C(N2CC2)C(=O)C(NCCO)=C1N1CC1`, the T/C (endpoint: median survival time, dose: 0.06 mg/kg/injection, schedule: Q01DX009 (ip), vehicle: saline) was 122 % of control, the T/C (endpoint: median survival time, dose: 0.25 mg/kg/injection, schedule: Q01DX009 (ip), vehicle: saline) was 153 % of control and the T/C (endpoint: median survival time, dose: 0.5 mg/kg/injection, schedule: Q01DX009 (ip), vehicle: saline) was 171 % of control. The T/C (endpoint: median survival time, dose: 1.0 mg/kg/injection, schedule: Q01DX009 (ip), vehicle: saline) was 220 % of control and the T/C (endpoint: median survival time, dose: 2.0 mg/kg/injection, schedule: Q01DX009 (ip), vehicle: saline) was 86 % of control.

In the case of `O=C1/C(=C/c2ccccc2)C=C(c2ccccc2)N1Cc1ccccc1`, the T/C [10] is reported as 103 % of control, the T/C [11] is reported as 100 % of control and the T/C [12] is reported as 100 % of control.

In the case of `C=CCOc1ccc(C=O)cc1`, the T/C [7] is reported as 102 % of control, the T/C [8] is reported as 102 % of control and the T/C [9] is reported as 97 % of control.

With `Nc1ccn(C2OC(CO)C3[O][Sn]([c]4ccccc4)([c]4ccccc4)[O]C32)c(=O)n1` (stereo not given) the T/C (endpoint: mean survival time, dose: 1.56 mg/kg/injection, schedule: Q01DX005 (ip), vehicle: other) was 100 % of control, the T/C (endpoint: mean survival time, dose: 3.13 mg/kg/injection, schedule: Q01DX005 (ip), vehicle: other) was 94 % of control and the T/C (endpoint: mean survival time, dose: 6.25 mg/kg/injection, schedule: Q01DX005 (ip), vehicle: other) was 100 % of control. For the same compound, the T/C (endpoint: mean survival time, dose: 12.5 mg/kg/injection, schedule: Q01DX005 (ip), vehicle: other) was 94 % of control and 104 % of control.

For `CCCN(C)C(=O)N(CCCl)N=O`, the T/C (endpoint: mean survival time, dose: 39.0 mg/kg/injection, schedule: Q01DX001 (ip), vehicle: other) was 306 % of control, the T/C (endpoint: mean survival time, dose: 62.5 mg/kg/injection, schedule: Q01DX001 (ip), vehicle: other) was 197 % of control and the T/C (endpoint: mean survival time, dose: 78.0 mg/kg/injection, schedule: Q01DX001 (ip), vehicle: other) was 448 % of control. The T/C (endpoint: mean survival time, dose: 125.0 mg/kg/injection, schedule: Q01DX001 (ip), vehicle: other) was 320 % of control and the T/C (endpoint: mean survival time, dose: 250.0 mg/kg/injection, schedule: Q01DX001 (ip), vehicle: other) was 102 % of control.

For `O=C(CC(=O)c1ccccc1)CC(=O)c1ccccc1`, the T/C [13] was 98 % of control, the T/C [14] was 100 % of control and the T/C [15] was 102 % of control.

With `CC(=O)CC(=O)C1CCC(C(=O)CC(C)=O)CC1` (stereo not given) the T/C [2] was 95 % of control and the T/C [4] was 91 % of control.

With `NC1=CC(=O)C(c2ccccc2)C1=O` (stereo not given) the T/C [1] was 100 % of control, the T/C [3] was 92 % of control and the T/C [5] was 92 % of control.

For `CS(=O)(=O)CS(=O)(=O)OCCCl`, the T/C [16] was 116 % of control and 121 % of control, the T/C [17] was 168 % of control and the T/C [18] was 207 % of control and 228 % of control. The T/C (endpoint: median survival time, dose: 25.0 mg/kg/injection, schedule: Q01DX009 (ip), vehicle: saline) was 197 % of control, the T/C [19] was 370 % of control and 722 % of control and the T/C (endpoint: median survival time, dose: 50.0 mg/kg/injection, schedule: Q01DX009 (ip), vehicle: saline) was 352 % of control. The T/C (endpoint: median survival time, dose: 100.0 mg/kg/injection, schedule: Q01DX009 (ip), vehicle: saline with Tween-80) was 370 % of control and the T/C (endpoint: median survival time, dose: 100.0 mg/kg/injection, schedule: Q01DX009 (ip), vehicle: saline) was 352 % of control.

With `NC(=S)N/N=C/c1ccc(I)cn1` the T/C [12] was 93 % of control, the T/C (endpoint: mean survival time, dose: 200.0 mg/kg/injection, schedule: Q04DX002 (ip), vehicle: saline with Tween-80) was 93 % of control and the T/C (endpoint: mean survival time, dose: 400.0 mg/kg/injection, schedule: Q04DX002 (ip), vehicle: saline with Tween-80) was 93 % of control.

With `CCOC(=O)Nc1cc(NC(C)CCCN(CC)CC)c2ncc(-c3cc(OC)c(OC)c(OC)c3)nc2n1` (stereo not given) (tested in a mixture with another compound) the T/C (endpoint: mean survival time, dose: 50.0 mg/kg/injection, schedule: Q01DX009 (ip), vehicle: saline) was 89 % of control, the T/C (endpoint: mean survival time, dose: 100.0 mg/kg/injection, schedule: Q01DX009 (ip), vehicle: saline) was 89 % of control and the T/C (endpoint: mean survival time, dose: 200.0 mg/kg/injection, schedule: Q01DX009 (ip), vehicle: saline) was 89 % of control.

`OCN(CO)c1nc(N(CO)CO)nc(N(CO)CO)n1` was tested, and the T/C (endpoint: mean survival time, dose: 6.3 mg/kg/injection, schedule: Q01DX009 (ip), vehicle: saline with Tween-80) was 92 % of control, the T/C (endpoint: mean survival time, dose: 12.5 mg/kg/injection, schedule: Q01DX009 (ip), vehicle: saline with Tween-80) was 96 % of control and the T/C (endpoint: mean survival time, dose: 25.0 mg/kg/injection, schedule: Q01DX009 (ip), vehicle: saline with Tween-80) was 87 % of control.

`Cc1cccc(/C=N\N=C\c2cccc(C)n2)n1` was tested, and the T/C [13] was 96 % of control, the T/C [2] was 95 % of control and the T/C [14] was 90 % of control. The T/C [4] was 91 % of control, the T/C [15] was 98 % of control and the T/C [6] was 107 % of control.

In the case of `COc1cc([N+](=O)[O-])c(C(=O)O)c(C(=O)O)c1OC`, the T/C (endpoint: mean survival time, dose: 12.5 mg/kg/injection, schedule: Q04DX002 (ip), vehicle: saline with Tween-80) is reported as 104 % of control, the T/C [10] is reported as 96 % of control and the T/C [11] is reported as 104 % of control.

For `O=CC(O)C(Cl)C(Cl)C(O)CCl` (stereo not given), the T/C (endpoint: mean survival time, dose: 100.0 mg/kg/injection, schedule: Q04DX003 (ip), vehicle: saline) was 115 % of control, the T/C (endpoint: mean survival time, dose: 200.0 mg/kg/injection, schedule: Q04DX003 (ip), vehicle: saline) was 100 % of control and the T/C (endpoint: mean survival time, dose: 400.0 mg/kg/injection, schedule: Q04DX003 (ip), vehicle: saline) was 98 % of control.

`[NH-]C(CCC(N)=O)C(=O)O.[NH-]C(CCC(N)=O)C(=O)O.[Zn+2]` (stereo not given) was tested, and the T/C [16] was 102 % of control, the T/C [17] was 101 % of control and the T/C [18] was 96 % of control. For the same compound, the T/C [19] was 101 % of control.
